Assay results: patent publication US20040204475A1, “Pharmaceutical combination” (priority 2003, published 2004)
Like-named read-outs stand apart in the source and are kept apart here.

What was measured:
[1] = α-polymorphic hydrobromide salt, oral, cited from earlier work
[2] = Time lag between oral administration and maximal plasma levels, eletriptan in combination with sodium bicarbonate; type: in vivo; details: administered in combination with sodium bicarbonate, in some cases
Source text: The advantage to the patient arising from the correspondingly swift amelioration of symptoms is self-evident.

[3] = Tablet hardness relative to tablets made from a placebo blend; type: physicochemical; details: eletriptan at 2.5% w/w of tablet
Procedure: A mixture of eletriptan hydrobromide (24.24 mg, equivalent to 20 mg of eletriptan free base), sodium bicarbonate (USP, 630 mg) and microcrystalline cellulose (Avicel PH 102, Ph. Eur., 137.76 mg) were blended for 10 minutes, passed through a […] screen and re-blended for a further 10 minutes. Screened intragranular magnesium stearate (Ph. Eur., 8 mg) was added and the mixture was lubricated for 5 minutes. […] The blend was made into a tablet by direct compression. The tablets so produced had excellent weight uniformity and friability.

[4] = 30 mg eletriptan, fasted, cited from earlier work

- time lag between oral administration and maximal plasma levels of drug [2]: 30 min
- increase in tablet hardness [3]: 0.7 kp
SMILES: CN1CCC[C@@H]1Cc1c[nH]c2ccc(CCS(=O)(=O)c3ccccc3)cc12 [eletriptan, 3-{[1-methylpyrrolidin-2(R)-yl]methyl}-5-(2-phenylsulfonylethyl)-1H-indole]
- Tmax (time between administering a standard tablet and maximal plasma concentrations) ([1]; fasted subjects): about 1 hour
- Tmax (time between administering a standard tablet and maximal plasma concentrations) ([1]; fed subjects): up to 4 hours
- Tmax ([4]; migraine-free patients): 1.3 ± 1.3 h
- Tmax ([4]; patients with migraine): 2.8 ± 2.1 h
